These results are taken from ChEMBL document CHEMBL1201862, “PubChem BioAssay data set” (2004).

Holding throughout (test): DTP human tumour cell line panel, 48 h
In assay [1] the test system is KM12.
Assay [2] has as its system CAKI-1.
For assay [3], the system named is HCT-15.
Assay [4] relates to CCRF-CEM.
Assay [5] concerns SR.
The test system of assay [6] is IGROV-1.
Assay [7] concerns UACC-62.
The subject of assay [8] is MDA-N.
The subject of assay [9] is SNB-19.
Assay [10] has as its system UO-31.
The test system of assay [11] is Hs-578T.
The subject of assay [12] is HCT-116.
Assay [13] has as its system M14.
In assay [14] the test system is NCI/ADR-RES.
Assay [15] has as its system PC-3.
Assay [16] relates to TK-10.
The test system of assay [17] is HOP-62.
In assay [18] the test system is HT-29.
Assay [19] relates to Malme-3M.
The subject of assay [20] is A498.

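These data come from cells grown in 96-well plates and exposed to compound for 48 hours at five concentrations. Here, GI50 denotes the concentration required for 50% inhibition of growth.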 The source made the active and inactive calls. Rule as the data show it: active = GI50 up to about 1.1 µM and inactive = higher. Where a SMILES comes first, the peptide text is derived from it. The star is where a group is joined. Boc = CC(C)(C)OC(=O)*; Bn = c1ccc(C*)cc1

Usually GI50 stands for the concentration giving 50% growth inhibition.

Take `COc1c(C)c(C/C=C(\C)CC/C=C(\C)CC/C=C(\C)CCC=C(C)C)c(OC)c2ccccc12`: the GI50 was > 100 µM (inactive) in assay [1]; > 100 µM (inactive) in [2]; greater than 100 µM in assay [3]; 28.5 µM (inactive) in assay [4]; 35.7 µM (inactive) in assay [5]; 37.2 µM (inactive) in assay [6]. Also, the GI50 in assay [7], in [8], in assay [9], in assay [10], in [11] and in [12] was > 100 µM (inactive) in each case. For the same compound, the GI50 in assay [13], in assay [14], in [15], in assay [16], in [17] and in [18] was > 100 µM (inactive) each time.

`CCCCCc1c2nc(c(CCCCC)c3ccc([nH]3)c(CCCCC)c3nc(c(CCCCC)c4ccc1[nH]4)C=C3)C=C2`: the GI50 in assay [1] was > 100 µM (inactive); in [2], > 100 µM (inactive); in [3], greater than 100 µM; in [4], > 100 µM (inactive); in assay [5], > 100 µM (inactive); in assay [6], > 100 µM (inactive). The GI50 in [7], in [8], in assay [9], in assay [10], in assay [11] and in [12] was > 100 µM (inactive) each time. In addition, the GI50 in [13], in assay [14], in assay [15], in assay [19], in [16] and in assay [17] was > 100 µM (inactive) throughout. Further, the GI50 in [18] was > 100 µM (inactive).

With `COc1ccc2c(=O)cc(-c3ccc(OC)c(OC)c3OC)oc2c1`, the GI50 in assay [1] is > 43.7 µM (inactive); in assay [2], > 82.4 µM (inactive); in assay [3] it was greater than 100 µM; in [4], > 31.6 µM (inactive); in assay [5], 74.8 µM (inactive); in [6], > 83.4 µM (inactive). Besides, the GI50 was 48.8 µM (inactive) in assay [7]; 95.3 µM (inactive) in assay [8]; > 60.4 µM (inactive) in assay [9]; > 100 µM (inactive) in [10]; 47.6 µM (inactive) in assay [11]; > 100 µM (inactive) in assay [12]. The GI50 was > 100 µM (inactive) in assay [13]; 28.4 µM (inactive) in assay [14]; 60.4 µM (inactive) in assay [15]; 40.4 µM (inactive) in assay [19]; > 100 µM (inactive) in [16]; > 85.3 µM (inactive) in assay [17]. The GI50 in assay [18] was 98.9 µM (inactive).

Regarding `COC(=O)C(=O)C(C(=O)C(=O)Nc1nnc(S)[nH]1)c1nc2ccc([N+](=O)[O-])cc2nc1O` (configuration not stated), the GI50 in [1] is > 100 µM (inactive); in assay [2], > 100 µM (inactive); in assay [3], greater than 100 µM; in assay [4] it was > 100 µM (inactive); in assay [6], 91.4 µM (inactive); in [7], > 100 µM (inactive). Besides, the GI50 is > 100 µM (inactive) in [20]; > 100 µM (inactive) in assay [8]; 44.7 µM (inactive) in [9]; 82.8 µM (inactive) in assay [10]; > 100 µM (inactive) in assay [11]; > 100 µM (inactive) in assay [12]. Moreover, the GI50 in [13], in assay [14], in assay [15], in assay [19], in assay [16] and in assay [17] was > 100 µM (inactive) each time. In [18], the GI50 was > 100 µM (inactive).

Regarding `COC(=O)C(CC(C)C)NC(=O)CNC(=O)C(Cc1ccc(OCc2ccccc2)cc1)NC(=O)C(COCc1ccccc1)NC(=O)OC(C)(C)C` (configuration not stated) (Boc-S(Bn)Y(Bn)GL-OMe; configuration not given here), the GI50 in [1], in [2], in assay [5], in assay [6], in assay [7] and in [8] was > 100 µM (inactive) each time. Further, the GI50 in [9], in assay [10], in assay [11], in [12], in assay [13] and in assay [14] was > 100 µM (inactive) in each case. Besides, the GI50 in [15], in assay [19], in [16], in assay [17] and in [18] was > 100 µM (inactive) throughout.

As for `CCCc1nc2c(n1CC)C(=O)c1ccccc1C2=O`, the GI50 in assay [1] is 40.3 µM (inactive); in assay [3] it was 28.3 µM; in assay [4], 24.5 µM (inactive); in [5], 42.3 µM (inactive); in assay [6], 27 µM (inactive); in assay [7], 26 µM (inactive). In addition, the GI50 in assay [8] was 20 µM (inactive); in assay [9], 86.9 µM (inactive); in [11] it was > 100 µM (inactive); in assay [12], 39.3 µM (inactive); in [13], 33.2 µM (inactive); in assay [14], 26.2 µM (inactive). For the same compound, the GI50 in [15] is 34.2 µM (inactive); in assay [19] it was 22.2 µM (inactive); in assay [16] it was 66.1 µM (inactive); in assay [17], > 100 µM (inactive); in [18] it was 18.5 µM (inactive).

For the compound `COc1cc(C2SCC(=O)N2Cc2ccccc2)cc(OC)c1OC` (configuration not stated), the GI50 in assay [1] is > 100 µM (inactive); in assay [2] it was > 100 µM (inactive); in [3] it was greater than 100 µM; in assay [4] it was > 100 µM (inactive); in assay [5], > 100 µM (inactive); in [6], 84.3 µM (inactive). Besides, the GI50 is 97.9 µM (inactive) in assay [7]; > 100 µM (inactive) in assay [8]; > 100 µM (inactive) in assay [9]; > 100 µM (inactive) in assay [10]; > 100 µM (inactive) in assay [11]; > 100 µM (inactive) in assay [12]. Further, the GI50 in assay [13], in assay [14], in [15], in assay [16] and in assay [18] was > 100 µM (inactive) in each case.

`CC(=O)NC1=C(NCCCl)C(=O)c2ccccc2C1=O`: the GI50 in assay [1] is 31.8 µM (inactive); in assay [3], 32.1 µM; in assay [4], 19.1 µM (inactive); in assay [5] it was 30.8 µM (inactive); in assay [6], 39.8 µM (inactive); in assay [7], 20 µM (inactive). Further, the GI50 in assay [8] was 21.4 µM (inactive); in assay [9], 58.3 µM (inactive); in [11], 43.5 µM (inactive); in assay [12], 20.5 µM (inactive); in [13] it was 13 µM (inactive); in [14] it was 29.5 µM (inactive). For the same compound, the GI50 in assay [15] was 22.3 µM (inactive); in [19], 13.9 µM (inactive); in assay [17], 64 µM (inactive); in assay [18], 26.4 µM (inactive).
